Laboratory results published in the METLIN SMRT retention time set (Domingo-Almenara et al. 2019).

Test: gradient 5% acetonitrile 3 min, to 50% in 2 min, to 85% in 15 min, held 3 min, 100 µL/min
Conditions: column: Zorbax Extend-C18 2.1 x 50 mm; eluents: water / acetonitrile, 0.1% formic acid
Procedure, shortened: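 Using water and acetonitrile that each contained 0.1% formic acid, mixtures of ~100 pure standards were separated at 100 μL/min on a Zorbax Extend-C18 column (2.1 × 50 mm, 1.8 μm). The HPLC fed a quadrupole time-of-flight mass spectrometer working in positive and negative ionization mode, with dead and dwell volumes of 40 μL and 900 μL. Data were acquired over 3 months. Retention time was read from computationally picked adduct peaks after manual inspection of each.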

Compared with `Cc1ccc2c(Nc3ccc(O)cc3)c(C(=O)OC(C)C)cnc2n1`, `COc1cccc(Nc2nc(C)c(C(=O)Nc3ccc(F)c(Cl)c3)s2)c1` is higher in RP-LC retention time: 640 s for the first, 1060 s for the second.

First: O=c1c2nc(-c3ccccc3)cn2ccn1-c1cccc(Cl)c1
Second: COc1ccc(-n2ccn3cc(-c4ccc(F)cc4)nc3c2=O)cc1
The RP-LC retention time of the first is higher: 852 s for the first, 790 s for the second.

Compared with `CCN(CC)c1nc(NC)nc(-n2cnc(SC)n2)n1`, `Cc1cc(C)n2nc(SCC(=O)NCCc3ccccc3)nc2n1` is lower in RP-LC retention time: 897 s for the first, 689 s for the second.

First: COCCN1C(=O)[C@H]2CN(Cc3ccc(Cl)c(F)c3)C[C@H]2C1=O
Second: CC1CCCN(S(=O)(=O)c2cc(C(=O)Nc3ccc(F)c(Cl)c3)n(C)c2)C1 (stereo unspecified)
The RP-LC retention time of the first is lower: 638 s for the first, 1170 s for the second.

Compared with `CCCNC(=O)C1CCCN(c2nc3ncn(CC(=O)Nc4ccc(F)cc4)c(=O)c3s2)C1` (stereo unspecified), `O=C(Cn1cnc2nc(N3CCCC(C(=O)NC4CC4)C3)sc2c1=O)Nc1ccc(F)c(F)c1` (stereo unspecified) is higher in RP-LC retention time: 692 s for the first, 705 s for the second.

Compared with `O=C(CNC(=O)c1cc2ccccc2o1)Nc1cccc(C(F)(F)F)c1`, `COc1ccc(NC(=O)Cn2nc3cc(-c4ccccc4)nc(C)n3c2=O)cc1OC` is lower in RP-LC retention time: 928 s for the first, 830 s for the second.

First: CCOCCCNC(=O)c1ncoc1-c1ccccc1C(=O)N1CCCC1
Second: CC(=O)Nc1cccc2c(C(=O)N3CCN(c4ccccc4Cl)CC3)ccnc12
The RP-LC retention time of the first is lower: 686 s for the first, 946 s for the second.

First: Cc1noc(C)c1C(=O)N1CCCn2ccnc2C1C1CCCC1 (stereo unspecified)
Second: Cc1cc(C)n(CC(=O)N2CCCCCCNC(=O)[C@@H]3CCCC[C@@H]32)n1
The RP-LC retention time of the first is lower: 587 s for the first, 715 s for the second.

First: CS(=O)(=O)N1CCC(C(=O)NCc2ccco2)Oc2ccc(Cl)cc21 (stereo unspecified)
Second: Cc1ccc(NC(=O)C2CCN(S(C)(=O)=O)c3cc(Cl)ccc3O2)cc1C (stereo unspecified)
The RP-LC retention time of the first is lower: 839 s for the first, 1090 s for the second.

Going from `Cc1ccc(CNC(=O)C2CCN(S(=O)(=O)c3ccc4c(c3)NC(=O)C(C)O4)CC2)cc1` (stereo unspecified) to `Cc1ccc(CNC(=O)C2CCN(C(=O)N3CCOc4ccc(Cl)cc43)CC2)cc1`, the RP-LC retention time rises from 824 s to 919 s.

Compared with `Cc1cc(S(=O)(=O)N2CCC3(CC2)CCC(O)(CN2CCCC2)CC3)ccc1Cl`, `CCOc1ccc(S(=O)(=O)N2CCC(C(=O)N3CCN(C)CC3)CC2)cc1` is lower in RP-LC retention time: 706 s for the first, 569 s for the second.

First: CCOC(=O)C1CCN(c2nc(-c3ccc(Cl)cc3)nc3ccccc23)CC1
Second: Clc1ccc(-c2nc(N3CCCCC3)c3ccccc3n2)cc1
The RP-LC retention time of the first is higher: 936 s for the first, 818 s for the second.

Compared with `COc1ccc(OC)c(S(=O)(=O)N2CCC(c3noc(-c4ccccc4C)n3)CC2)c1`, `COc1ccc(Cl)cc1-c1nc(C2CC(=O)N(c3ccc(F)cc3)C2)no1` (stereo unspecified) is lower in RP-LC retention time: 1140 s for the first, 1030 s for the second.

Compared with `CCOC(=O)c1c(C)[nH]c(C(=O)N2CCC(CC(=O)NCC3CCCO3)CC2)c1C` (stereo unspecified), `CCNC(=O)C1CCN(S(=O)(=O)c2cc(-c3noc(C)n3)cs2)CC1` is higher in RP-LC retention time: 657 s for the first, 713 s for the second.

First: O=C(c1cccs1)N1CCCC1c1nc(-c2ccccc2)no1 (stereo unspecified)
Second: O=S(=O)(Cc1ccccc1)N1CCC(c2noc(-c3cnccn3)n2)C1 (stereo unspecified)
The RP-LC retention time of the first is higher: 946 s for the first, 797 s for the second.

First: CC(C)(C)C(=O)NCc1cccnc1-c1ccc(F)cc1
Second: Cc1ccc(Oc2cccc(C(=O)NCc3ccc(F)cc3)c2)nn1
The RP-LC retention time of the first is lower: 614 s for the first, 681 s for the second.

Going from `CCOC(=O)c1c(C)nc(C)c(C(=O)OCC)c1-c1cccnc1` to `CCn1c(=O)c(C(=O)NCCCOC(C)C)nc2cccnc21`, the RP-LC retention time falls from 810 s to 728 s.

Compared with `CC(C(=O)NCCN1CCN(C)CC1)n1c2ccccc2c2cnn(C)c(=O)c21` (stereo unspecified), `Cn1ncc2c3ccccc3n(CC(=O)NCCCN3CCOCC3)c2c1=O` is higher in RP-LC retention time: 572 s for the first, 582 s for the second.

Going from `Cn1cc(C(=O)NCCn2ncccc2=O)nn1` to `O=C(Cn1nc2c(Oc3ccccc3)nccn2c1=O)NCCCc1ccccc1`, the RP-LC retention time rises from 520 s to 871 s.

Going from `CCNC(=O)C1CCCN(S(=O)(=O)c2ccc(OC)c(OC)c2)C1` (stereo unspecified) to `CCn1ccc2cc(S(=O)(=O)N3CCCC(C(=O)NCCCc4ccccc4)C3)ccc21` (stereo unspecified), the RP-LC retention time rises from 684 s to 1000 s.

Compared with `CCC1CN(C(=O)Nc2ccccc2)c2ccccc2O1` (stereo unspecified), `O=C(CCc1nc(CSc2nnc(-c3ccccc3)o2)no1)Nc1ccccc1` is lower in RP-LC retention time: 1020 s for the first, 863 s for the second.

Compared with `CCn1ccc(C(=O)Nc2cccc(OCc3nnc(-c4ccccc4)o3)c2)n1`, `Clc1ccc(-c2nc3ncccn3c2Nc2ccccc2)cc1` is lower in RP-LC retention time: 891 s for the first, 818 s for the second.

Compared with `Cc1ccc(CNC(=O)C2c3ccccc3CC(=O)N2C)o1` (stereo unspecified), `O=C(Cn1ccc2ccc(N3CCOCC3)nc21)NCc1ccccc1Cl` is higher in RP-LC retention time: 693 s for the first, 905 s for the second.

Compared with `Cc1nc2c(c(C)c1CCC(=O)NCC1CCN(CC(C)C)C1)c(=O)n(C)c(=O)n2C` (stereo unspecified), `CC(Oc1cccc(Cl)c1)C(=O)N1CCCN(c2cc(=O)n(C)c(=O)n2C)CC1` (stereo unspecified) is higher in RP-LC retention time: 610 s for the first, 707 s for the second.

Compared with `OC(COCCOc1c(F)cc(Br)cc1F)CSc1ccccn1` (stereo unspecified), `Fc1ccc(OCc2nnc3sc(CCCc4ccccc4)nn23)cc1` is higher in RP-LC retention time: 934 s for the first, 1030 s for the second.

Going from `COc1ccc(S(=O)(=O)N2CCN(CCc3cn(C)c4ncccc34)CC2)cc1` to `Cc1cc(N(C)C)nc(N2CCN(S(=O)(=O)c3ccc(Br)cc3)CC2)n1`, the RP-LC retention time rises from 609 s to 733 s.

Going from `CCn1cnc(S(=O)(=O)N2CCC(C(=O)Nc3nccs3)CC2)c1` to `CCc1nc(-c2csc(S(=O)(=O)N3CCCC(C(=O)Nc4cccc(C)c4)C3)c2)no1` (stereo unspecified), the RP-LC retention time rises from 636 s to 983 s.

First: CCn1nccc1-c1cccc(-c2noc(CCS(=O)(=O)c3ccc(C)cc3)n2)c1
Second: CCCNC(=O)c1cc(-c2ccncc2)cn1Cc1ccc(C)cc1
The RP-LC retention time of the first is higher: 993 s for the first, 696 s for the second.

First: CN(C)S(=O)(=O)c1ccc(NC(=O)Cc2ccc(F)cc2)cc1
Second: O=C(Cn1c(=O)c2cc(-c3cccs3)nn2c2ncccc21)Nc1ccc(F)cc1
The RP-LC retention time of the first is lower: 780 s for the first, 870 s for the second.

First: COc1ccc(C(O)CN2CCN(c3ccc(OC)cc3)CC2)cc1 (stereo unspecified)
Second: COc1ccc(-c2c(C(=O)Nc3cc(OC)ccc3OC)nc3ccccn23)cc1
The RP-LC retention time of the first is lower: 647 s for the first, 1030 s for the second.

Compared with `CC1=C(c2ccc(C)cc2)S(=O)(=O)N=C1N1CCCN(C(=O)c2ccccc2C)CC1`, `COc1ccccc1N1CCN(C(=O)c2cccc([N+](=O)[O-])c2)CC1` is lower in RP-LC retention time: 898 s for the first, 786 s for the second.

Compared with `C[C@H]1CN(C(=O)NC2CCCCC2)C[C@@H]1c1nc(-c2cccnc2)no1`, `O=C(NC1CCCCCC1)c1cc(C2CC2)[nH]n1` is higher in RP-LC retention time: 784 s for the first, 792 s for the second.

Compared with `Cn1c(N2CCN(C(=O)Cc3ccccc3Cl)CC2)cc(=O)n(C)c1=O`, `Cc1cccc(N2CCN(S(=O)(=O)c3cc4n(c3)CCCNC4=O)CC2)c1` is higher in RP-LC retention time: 732 s for the first, 758 s for the second.

Compared with `Cc1noc(-c2cccc(OC3CN(C(=O)c4ccco4)C3)c2)n1`, `Cc1nc(-c2ccc(C(=O)NCc3ccc4c(c3)OCO4)cc2)cs1` is higher in RP-LC retention time: 789 s for the first, 844 s for the second.

First: Cn1c(=O)n([C@@H]2CCN(C(=O)C3CCC3)C2)c2ncccc21
Second: Cn1nc(C2CCN(S(=O)(=O)c3cc(F)cc(F)c3)CC2)n(C2CCCC2)c1=O
The RP-LC retention time of the first is lower: 639 s for the first, 893 s for the second.

First: C=CCNC(=O)COc1cccc2c(=O)n(CC=C)ccc12
Second: COCCn1c(SCC(=O)Nc2nc3ccccc3s2)nc2c(c1=O)SC(C)C2 (stereo unspecified)
The RP-LC retention time of the first is lower: 700 s for the first, 806 s for the second.

First: CCS(=O)(=O)c1nc2ccc(NS(=O)(=O)c3ccc(C(C)C)cc3)cc2s1
Second: Cc1cc(NC(=O)C2CCCN(c3ccc(=O)n(-c4cccc(F)c4)n3)C2)ccc1Br (stereo unspecified)
The RP-LC retention time of the first is lower: 975 s for the first, 1050 s for the second.

Going from `Cc1noc(C)c1Cc1c(C(=O)NCC23CCC=C2N(C)C(=O)CC3)noc1C` (stereo unspecified) to `Cc1cc(C)nc(-n2nc(C)c3c2N(C)C(=O)CC3c2ccccc2Cl)n1` (stereo unspecified), the RP-LC retention time rises from 768 s to 810 s.

Compared with `CNC(=O)N1CCc2ccc(C(=O)NC(C)(C)C)cc21`, `CCCS(=O)(=O)NCc1ccc2c(c1)CCN2C(=O)CC` is higher in RP-LC retention time: 661 s for the first, 686 s for the second.

Compared with `O=c1c2ccccc2ccc2ccccc12`, `O=C1CCCCC(Cc2ccccc2)(C(=O)N2CCc3ccccc3C2)N1` (stereo unspecified) is lower in RP-LC retention time: 1120 s for the first, 836 s for the second.

Going from `CCCc1nnc(NC(=O)CSc2ccc(NC(=O)C3CC3)nn2)s1` to `O=C(NCCN1CCOCC1)C1CCCN(c2nccnc2Sc2ccccc2)C1` (stereo unspecified), the RP-LC retention time falls from 694 s to 652 s.

Compared with `CC(C(=O)Nc1ccccc1C(F)(F)F)n1cnc2nc3c(cc2c1=O)CCCC3` (stereo unspecified), `Cc1cc2nnc(SCC(=O)c3ccc4c(c3)OCO4)n2c2ccccc12` is higher in RP-LC retention time: 768 s for the first, 793 s for the second.

Compared with `O=[N+]([O-])c1c(-c2nc3ccc(Cl)cn3c2Nc2ccc(Cl)cc2)ccc2c1OCO2`, `CN(CC1COCCO1)c1ccc(C(=O)O)cc1NC(=O)c1ccc(Cl)cc1` (stereo unspecified) is lower in RP-LC retention time: 1000 s for the first, 812 s for the second.

Going from `OCCNc1nc(N2CCOCC2)nc2c1cnn2-c1ccc(Cl)cc1` to `Cc1cc(N2CCN(C)CC2)nc2ccc(NC(=S)N(C)C3CCCCC3)cc12`, the RP-LC retention time falls from 824 s to 583 s.

First: CC1CCc2[nH]nc(C(=O)NC3CC3)c2C1 (stereo unspecified)
Second: CC(C)NC(=O)N(C1CC1)C1CCOC2(CCN(C(=O)C3CCCC3)CC2)C1 (stereo unspecified)
The RP-LC retention time of the first is lower: 683 s for the first, 814 s for the second.

Work on `COc1ccc(C(=O)c2c(N)c(C#N)c3ccccn23)cc1` yielded an RP-LC retention time of 777 s.
